Numbered stars: 1 amine (or outer) side, 2 acyl side, 3 side chain; on linkers, the order of the positions; unused ones are H or OH. Square brackets hold non-standard residues; d marks the D form. Side chains are listed from the residue outwards. Peptide text beside a SMILES is read from it. * marks the point of attachment. γGlu = O=C(O)[C@H](CCC(=O)[*:2])N[*:1]; αMeF = C[C@](N)(Cc1ccccc1)C(=O)O; αMeK = C[C@](N)(CCCCN)C(=O)O; Lauroyl = CCCCCCCCCCCC(=O)*; αMeS = C[C@](N)(CO)C(=O)O; AEEA = NCCOCCOCC(=O)O; Aib = CC(C)(N)C(=O)O
How the values were obtained:
pancreatin = system: pancreatin; parameters: method as in PMID 34795324; conditions: simulated intestinal fluid containing pancreatin, over a 60 min period; cited from earlier work
[1] = dogs; cited from earlier work
From the text: MEDI7219 is a glucagon-like peptide 1 (GLP-1) receptor agonist drug candidate developed by AstraZeneca.[10] The peptide was designed for oral delivery and has natural amino acid and α-methyl amino acid substitutions to protect against peptidasesin the gastrointestinal tract. The peptide backbone has two lipid side chains that can bind to plasma proteins, thereby prolonging the circulation half-life of the peptide. […] The calculated pI is 3.8, giving the peptide a charge of −6.2 at pH 7.4. The molecular weight of MEDI7219 is 4353, ...

[2] = Rat intestinal instillation model (intraduodenal administration, plasma pharmacokinetics, deconvolution); conditions: for Proportion of total absorption (120 min) occurring in interval 0–20 min / Proportion of total absorption (120 min) occurring in interval 20–40 min / Proportion of total absorption (120 min) occurring in interval 40–60 min / Proportion of total absorption (120 min) occurring in interval 60–80 min / Proportion of total absorption (120 min) occurring in interval 80–100 min / Proportion of total absorption (120 min) occurring in interval 100–120 min: average ± SD; for Cmax / Tmax: male, Wistar Han, rat, plasma; for Cmax: pH 6.5, Cmax, MEDI7219 1.0 mg, PEP12210 5.0 mg, mean ± SD (CV%); for Tmax: pH 6.5, Tmax
Method: Blank FaSSIF was prepared by dissolving 2.22 g of maleic acid, 1.39 g of sodium hydroxide, and 4.01 g of sodium chloride in Milli-Q water and adjusting the pH to 6.5 and volume to 1000 mL. C10 solutions were prepared at 50 or 300 mM C10 in blank FaSSIF and pH-adjusted to 6.5 by the addition of 2 M HCl. Blank FaSSIF solutions containing 0–300 mM C10 were stored at room temperature (RT) and used within 30 days. The model compounds were dissolved in blank FaSSIF with or without C10 the day before the absorption study and stored at +4 °C overnight. […] All IV formulations were sterile filtered into autoclaved injection vials and stored at +4 °C.
Upon arrival at the animal facility, the rats underwent an acclimatization period of 5 days with food and water ad libitum.
Briefly, anesthesia was induced with isoflurane after which the animal was moved to a preheated preparatory table. Fur was shaved from the throat to the lower abdomen and the shaved area was disinfected with a medicinal sponge containing chlorhexidine. The rat was draped in plastic foil and transferred to a preheated operating table where anesthesia was continued throughout the entire study using 3% isoflurane carried in an air/oxygen mixture. A polyurethane catheter was placed in the left carotid artery to allow for blood sampling, as well as blood pressure and heart rate monitoring. A midline incision was made in the abdomen, the duodenum was located and a catheter was placed in the common bile duct to avoid bile secretion into the duodenum. […] The stomach was punctured approximately 1 cm proximal to the pyloric sphincter with a 20G needle. A soft polyurethane catheter with a rounded tip was inserted into the small intestine via the gastric incision so that the tip of the catheter was positioned approximately 4 cm distal to the pylorus. The intestinal catheter was secured to the stomach with a suture and a ligature was placed at the pylorus to prevent backflow of formulation into the stomach and transit of gastric content into the duodenum. A thermometer was placed in the abdominal cavity and the abdomen was closed with stitches. A heating lamp coupled to the thermometer via a thermostat maintained the animal at 37 °C. The surgery was followed by a 30 min recovery period to allow the animal to regain normal temperature and blood pressure.
The liquid formulations were equilibrated to room temperature under magnetic stirring for 2 h prior to administration. Intestinal bolus administrations were performed over approximately 5 s via the intestinal catheter. […] The C10 doses were 7.8 mg for administrations with 50 mM C10 and 47 mg for 300 mM C10. Five to six replicates were performed for each administration group. […] Blood plasma was separated by immediately centrifuging the blood samples at +4 °C and 10 000g for 4 min. Plasma samples were transferred to new tubes and stored at −80 °C until analysis.
The animals receiving IV administration were handled and prepared in the same way as the animals receiving intestinal administration up until the placement of the carotid catheter. As no abdominal surgery was performed, a thermometer was introduced rectally.

[3] = 0 mM C10, numerical deconvolution, n = 5–6 (PEP12210 n = 2)
[4] = 50 mM C10, numerical deconvolution, n = 5–6
[5] = 300 mM C10, numerical deconvolution, n = 5–6

- Proportion of total absorption (120 min) occurring in interval 0–20 min [2, 3]: 11% ± 2.8%
- Proportion of total absorption (120 min) occurring in interval 20–40 min [2, 3]: 12% ± 2.9%
- Proportion of total absorption (120 min) occurring in interval 40–60 min [2, 3]: 22% ± 2.5%
- Proportion of total absorption (120 min) occurring in interval 60–80 min [2, 3]: 15% ± 1.2%
- Proportion of total absorption (120 min) occurring in interval 80–100 min [2, 3]: 18% ± 2.5%
- Proportion of total absorption (120 min) occurring in interval 100–120 min [2, 3]: 22% ± 4.9%
- Proportion of total absorption (120 min) occurring in interval 0–20 min [2, 4]: 72% ± 3.6%
- Proportion of total absorption (120 min) occurring in interval 20–40 min [2, 4]: 16% ± 2.6%
- Proportion of total absorption (120 min) occurring in interval 40–60 min [2, 4]: 4.5% ± 1.7%
- Proportion of total absorption (120 min) occurring in interval 60–80 min [2, 4]: 1.8% ± 5.5%
- Proportion of total absorption (120 min) occurring in interval 80–100 min [2, 4]: 2.1% ± 2.6%
- Proportion of total absorption (120 min) occurring in interval 100–120 min [2, 4]: 3.6% ± 4.2%
- Proportion of total absorption (120 min) occurring in interval 0–20 min [2, 5]: 25% ± 5.1%
- Proportion of total absorption (120 min) occurring in interval 20–40 min [2, 5]: 20% ± 2.6%
- Proportion of total absorption (120 min) occurring in interval 40–60 min [2, 5]: 24% ± 2.3%
- Proportion of total absorption (120 min) occurring in interval 60–80 min [2, 5]: 13% ± 3.5%
- Proportion of total absorption (120 min) occurring in interval 80–100 min [2, 5]: 10% ± 3.1%
- Proportion of total absorption (120 min) occurring in interval 100–120 min [2, 5]: 7.8% ± 4.0%
- Cmax ([2]; 50 mM C10, blank FaSSIF pH 6.5, dose FD10 10 mg, n = 5–6): 440 nM
- Cmax ([2]; 300 mM C10, blank FaSSIF pH 6.5, dose FD10 10 mg, n = 5–6): 1400 nM
- Tmax ([2]; 0 mM C10, blank FaSSIF pH 6.5, median (min–max), n = 5–6 (PEP12210 n = 2)): 2 h
- Tmax ([2]; 50 mM C10, blank FaSSIF pH 6.5, median (min–max), n = 5–6): 0.333 h
- Tmax ([2]; 300 mM C10, blank FaSSIF pH 6.5, median (min–max), n = 5–6): 1.5 h
SMILES: CCCCCCCCCCCC(=O)N[C@@H](CCC(=O)NCCOCCOCC(=O)NCCOCCOCC(=O)NCCCC[C@H](NC(=O)[C@H](C)NC(=O)[C@@H](NC(=O)[C@](C)(Cc1ccccc1)NC(=O)[C@H](CCC(=O)O)NC(=O)[C@](C)(CCCCN)NC(=O)[C@H](C)NC(=O)[C@H](C)NC(=O)[C@H](CCC(=O)O)NC(=O)CNC(=O)[C@H](CCC(=O)O)NC(=O)[C@H](CC(C)C)NC(=O)[C@H](CCCCNC(=O)COCCOCCNC(=O)COCCOCCNC(=O)CC[C@H](NC(=O)CCCCCCCCCCC)C(=O)O)NC(=O)[C@H](CO)NC(=O)[C@](C)(CO)NC(=O)[C@@H](NC(=O)[C@H](CC(=O)O)NC(=O)[C@H](CO)NC(=O)[C@@H](NC(=O)[C@](C)(Cc1ccccc1)NC(=O)[C@H](CO)NC(=O)CNC(=O)[C@H](CCC(=O)O)NC(=O)C(C)(C)NC(=O)[C@@H](N)Cc1c[nH]cn1)[C@@H](C)O)C(C)C)[C@@H](C)CC)C(=O)N[C@H](C(=O)N[C@H](C(=O)N[C@@H](CCC(=O)O)C(=O)NCC(=O)NCC(N)=O)C(C)C)C(C)C)C(=O)O [MEDI7219] (H-H[Aib]EGS[αMeF]TSDV[αMeS]SK([AEEA-AEEA-γGlu-Lauroyl])LEGEAA[αMeK]E[αMeF]IAK([AEEA-AEEA-γGlu-Lauroyl])VVEGG-NH2)
- Proportion of peptide remaining intact (pancreatin): 90%
- Half-life following oral administration [1]: 9.8 h

Source: paper PMC9257752, “Intestinal Absorption of FITC-Dextrans and Macromolecular Model Drugs in the Rat Intestinal Instillation Model” (Molecular Pharmaceutics, 2022)
